According to patent US20260055079A1, “PHTHALAZINONE COMPOUNDS AS PARP7 INHIBITORS” (AZKARRA THERAPEUTICS, INC., priority 2022, published 2026):
Read-outs that look alike come from different tables or passages of the source.

Columns and labels:
[1] = biological target: His-GST-PARP7 (Homo sapiens (Human), UniProt Q7Z3E1); assay: PARP7 biochemical assay; settings: read-out: PARP7 IC50
[2] = biological target: PARP1 (Homo sapiens (Human), UniProt P09874); assay: PARP1 biochemical assay
[3] = biological target: PARP2 (Homo sapiens (Human), UniProt Q9UGN5); assay: PARP2 biochemical assay; settings: read-out: PARP2 IC50
Sequence of PARP2 (Q9UGN5 whole entry): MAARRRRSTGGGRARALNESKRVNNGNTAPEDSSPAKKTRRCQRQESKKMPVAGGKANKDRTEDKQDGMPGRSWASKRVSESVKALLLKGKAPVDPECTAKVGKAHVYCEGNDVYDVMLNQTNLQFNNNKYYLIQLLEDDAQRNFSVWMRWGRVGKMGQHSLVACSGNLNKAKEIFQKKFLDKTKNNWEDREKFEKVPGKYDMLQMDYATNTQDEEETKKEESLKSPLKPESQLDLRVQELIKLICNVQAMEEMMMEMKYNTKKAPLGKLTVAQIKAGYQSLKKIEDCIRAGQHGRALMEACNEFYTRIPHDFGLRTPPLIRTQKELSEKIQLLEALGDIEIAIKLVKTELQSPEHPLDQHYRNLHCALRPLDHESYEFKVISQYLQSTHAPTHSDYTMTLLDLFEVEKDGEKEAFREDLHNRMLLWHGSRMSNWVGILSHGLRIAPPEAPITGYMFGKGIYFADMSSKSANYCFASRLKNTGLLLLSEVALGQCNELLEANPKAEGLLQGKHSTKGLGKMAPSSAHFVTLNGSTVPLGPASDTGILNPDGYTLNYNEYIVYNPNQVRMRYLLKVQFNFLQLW

[4] = test system: NCI-H1373 (human lung adenocarcinoma) cells; assay: Cell proliferation assay (CellTiter-Glo), NCI-H1373; format: cell-based; settings: 6 days, CellTiter-Glo, read-out: NCI-H1373 GI50
[5] = test system: HARA (human lung squamous cell carcinoma) cells; assay: Cell proliferation assay (CellTiter-Glo), HARA; format: cell-based; settings: 6 days, CellTiter-Glo, read-out: HARA GI50
[6] = test system: CT26 (mouse colon adenocarcinoma) cells; assay: Cell proliferation assay (CellTiter-Glo), CT26; format: cell-based; settings: Mus musculus, CT26, 144 h, 6 days
[7] = test system: secreted IFN-β; assay: Interferon-β ELISA, CT-26 cells; format: cell-based, mouse
Protocol: CT-26 cells were seeded into a 6-well plate. After 24 h, the growth media was replaced, and cells were treated with inhibitors. After treatment, growth media was harvested and assayed with PBL Verikine Mouse IFN-β ELISA kit following the manufacturer protocol.

[8] = test system: STING, pTBK1, pIRF3; assay: STING, pTBK1 and pIRF3 western blot in CT-26 cells; format: cell-based, mouse

Sequence of His-GST-PARP7 (Q7Z3E1 whole entry): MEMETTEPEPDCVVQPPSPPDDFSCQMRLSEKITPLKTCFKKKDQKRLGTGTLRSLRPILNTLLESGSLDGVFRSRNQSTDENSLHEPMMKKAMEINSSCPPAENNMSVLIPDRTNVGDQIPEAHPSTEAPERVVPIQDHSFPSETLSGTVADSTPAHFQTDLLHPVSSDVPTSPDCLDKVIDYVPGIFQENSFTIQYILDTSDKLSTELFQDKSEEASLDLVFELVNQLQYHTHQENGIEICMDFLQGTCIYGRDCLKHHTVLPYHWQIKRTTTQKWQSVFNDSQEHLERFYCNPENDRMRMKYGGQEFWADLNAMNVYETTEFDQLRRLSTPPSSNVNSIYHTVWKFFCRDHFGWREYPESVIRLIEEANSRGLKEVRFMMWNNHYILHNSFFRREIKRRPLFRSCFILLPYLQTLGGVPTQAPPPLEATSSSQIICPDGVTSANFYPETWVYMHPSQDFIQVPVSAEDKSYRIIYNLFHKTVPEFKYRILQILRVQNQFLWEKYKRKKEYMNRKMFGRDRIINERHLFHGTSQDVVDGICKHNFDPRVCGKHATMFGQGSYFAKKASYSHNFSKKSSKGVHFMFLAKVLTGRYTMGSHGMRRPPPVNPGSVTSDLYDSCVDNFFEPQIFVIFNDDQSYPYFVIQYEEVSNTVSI
Sequence of PARP1 (P09874 whole entry, species assumed): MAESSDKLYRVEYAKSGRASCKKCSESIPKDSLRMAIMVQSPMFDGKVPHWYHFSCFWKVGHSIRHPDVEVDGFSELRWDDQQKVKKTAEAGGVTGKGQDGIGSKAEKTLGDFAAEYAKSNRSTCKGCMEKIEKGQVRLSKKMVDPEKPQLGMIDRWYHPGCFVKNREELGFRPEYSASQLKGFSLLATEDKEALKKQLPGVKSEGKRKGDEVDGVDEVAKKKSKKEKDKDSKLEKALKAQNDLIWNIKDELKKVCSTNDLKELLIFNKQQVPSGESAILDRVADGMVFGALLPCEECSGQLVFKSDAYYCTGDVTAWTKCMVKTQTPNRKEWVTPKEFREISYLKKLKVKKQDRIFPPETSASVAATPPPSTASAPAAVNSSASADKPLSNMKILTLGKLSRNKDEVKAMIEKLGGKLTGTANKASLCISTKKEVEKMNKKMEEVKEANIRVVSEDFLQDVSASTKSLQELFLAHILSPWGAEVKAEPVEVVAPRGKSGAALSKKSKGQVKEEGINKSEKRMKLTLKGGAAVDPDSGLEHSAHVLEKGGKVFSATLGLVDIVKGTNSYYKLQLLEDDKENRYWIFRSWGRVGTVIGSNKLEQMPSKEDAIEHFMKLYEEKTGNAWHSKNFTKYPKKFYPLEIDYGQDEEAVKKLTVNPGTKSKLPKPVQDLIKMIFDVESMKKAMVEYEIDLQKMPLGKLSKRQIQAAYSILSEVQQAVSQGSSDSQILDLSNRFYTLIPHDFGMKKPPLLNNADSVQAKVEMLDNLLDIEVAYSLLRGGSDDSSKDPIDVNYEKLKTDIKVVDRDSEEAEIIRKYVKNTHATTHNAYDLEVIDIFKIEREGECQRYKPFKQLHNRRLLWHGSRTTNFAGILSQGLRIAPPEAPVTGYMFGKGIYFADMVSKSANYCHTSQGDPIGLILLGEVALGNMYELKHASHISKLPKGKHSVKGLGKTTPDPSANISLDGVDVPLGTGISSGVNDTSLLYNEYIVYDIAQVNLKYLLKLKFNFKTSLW

Compound	IC50 [1] [nM]	IC50 [2] [nM]	IC50 [3] [nM]	GI50 ([4]; Homo sapiens, NCI-H1373, 144 h) [nM]	GI50 ([5]; Homo sapiens, 144 h) [nM]	GI50 [6] [nM]	GI50 [4] [nM]	GI50 [5] [nM]	PARP7 inhibitor-induced induction of IFN-β [7]	STING levels [8]	pTBK1 and pIRF3 [8]
CC#Cc1cc(C(F)(F)F)c2c(=O)[nH]nc(Cc3ccc(F)c(C(=O)N4CCN(c5ccc(C#N)cn5)CC4)c3)c2c1 [Example 84, 6-(4-(2-Fluoro-5-((4-oxo-7-(prop-1-yn-1-yl)-5-(trifluoromethyl)-3,4-dihydrophthalazin-1-yl)methyl)benzoyl)piperazin-1-yl)nicotinonitrile]	< 50	100 to 500	100 to 500	< 100	1000 to 5000	> 5000					
N#Cc1ccc(N2CCN(C(=O)c3cncc(Cc4n[nH]c(=O)c5ccc(OC6CCC6)cc45)c3)CC2)nc1 [Example 177, 6-(4-(5-((7-Cyclobutoxy-4-oxo-3,4-dihydrophthalazin-1-yl)methyl)nicotinoyl)piperazin-1-yl)nicotinonitrile]	< 50	50 to 100	100 to 500	< 100	> 5000	> 5000					
6-(4-(5-((7-cyclobutoxy-4-oxo-3,4-dihydrophthalazin-1-yl)methyl)-2-fluorobenzoyl)piperazin-1-yl)-4-methoxynicotinonitrile [Example 137]	< 50	> 2000	100 to 500				< 100	1000 to 5000			
CC#Cc1ccc2c(=O)[nH]nc(CNC(C)CC(=O)N3CCN(c4ncc(C(F)(F)F)cn4)CC3)c2c1 (stereo not drawn) [Example 191, 4-(((4-Oxo-4-(4-(5-(trifluoromethyl)pyrimidin-2-yl)piperazin-1-yl)butan-2-yl)amino)methyl)-6-(prop-1-yn-1-yl)phthalazin-1(2H)-one]	< 50	> 2000	> 2000	100 to 1000	1000 to 5000	> 5000					
COc1cc2c(Cc3cccc(C(=O)N4CCN(c5ccc(C#N)cn5)CC4)c3)n[nH]c(=O)c2cc1F [Example 82, 6-(4-(3-((6-Fluoro-7-methoxy-4-oxo-3,4-dihydrophthalazin-1-yl)methyl)benzoyl)piperazin-1-yl)nicotinonitrile]	< 50	< 50	< 50	< 100	100 to 1000	< 100					
CC#Cc1ccc2c(=O)[nH]nc(Cc3ccc(F)c(C(=O)N4CCN(c5ccc(C#N)cn5)CC4)c3)c2c1C [Example 86, 6-(4-(2-Fluoro-5-((8-methyl-4-oxo-7-(prop-1-ynyl)-3,4-dihydrophthalazin-1-yl)methyl)benzoyl)piperazin-1-yl)nicotinonitrile]	< 50	50 to 100	500 to 2000	< 100	1000 to 5000	> 5000					
CCc1ccc(NC(=O)Nc2c[nH]c3ccccc23)cc1 [Example H-151]									completely blocked		
C#CC(C)Oc1ccc2c(=O)[nH]nc(Cc3ccc(F)c(C(=O)N4CCN(c5ccc(C#N)cn5)CC4)c3)c2c1 (stereo not drawn) [Example 8, 6-(4-(5-((7-(But-3-yn-2-yloxy)-4-oxo-3,4-dihydrophthalazin-1-yl)methyl)-2-fluorobenzoyl)piperazin-1-yl)nicotinonitrile]	< 50	100 to 500	100 to 500	< 100	1000 to 5000	< 100					
N#Cc1ccc(N2CCN(C(=O)c3cccc(Cc4n[nH]c(=O)c5c(F)c(F)ccc45)c3)CC2)nc1 [Example 87, 6-(4-(3-((5,6-Difluoro-4-oxo-3,4-dihydrophthalazin-1-yl)methyl)benzoyl)piperazin-1-yl)nicotinonitrile]	< 50	< 50	< 50	< 100	100 to 1000	100 to 1000					
N#Cc1ccc(N2CCN(C(=O)c3cccc(Cc4n[nH]c(=O)c5ccc(OC6CCC6)cc45)n3)CC2)nc1 [Example 176, 6-(4-(6-((7-Cyclobutoxy-4-oxo-3,4-dihydrophthalazin-1-yl)methyl)picolinoyl)piperazin-1-yl)nicotinonitrile]	< 50	50 to 100	100 to 500	100 to 1000	> 5000	1000 to 5000					
CC#Cc1ccc2c(=O)[nH]nc(Cc3ccc(F)c(C(=O)N4CCn5c(nnc5C(F)(F)F)C4)c3)c2c1 [Example 65, 4-(4-fluoro-3-(3-(trifluoromethyl)-5,6,7,8-tetrahydro-[1,2,4]triazolo[4,3-a]pyrazine-7-carbonyl)benzyl)-6-(prop-1-yn-1-yl)phthalazin-1(2H)-one]	< 50	50 to 100	50 to 100	100 to 1000							
Cc1ccc2c(=O)c3cccc(CC(=O)O)c3oc2c1C [DMXAA]										decreased substantially STING levels	induced robustly both pTBK1 and pIRF3
N#Cc1ccc(N2CCN(C(=O)c3cc(Cc4n[nH]c(=O)c5c(C(F)(F)F)cc(OC6CCC6)cc45)ccc3F)CC2)nc1 [Example 93, 6-(4-(5-((7-Cyclobutoxy-4-oxo-5-(trifluoromethyl)-3,4-dihydrophthalazin-1-yl)methyl)-2-fluorobenzoyl)piperazin-1-yl)nicotinonitrile]	< 50			< 100	1000 to 5000	1000 to 5000					
N#Cc1ccc(N2CCN(C(=O)c3cc(Cc4n[nH]c(=O)c5ccc(S(=O)(=O)C6CCC6)cc45)ccc3F)CC2)nc1 [Example 53, 6-(4-(5-((7-(cyclobutylsulfonyl)-4-oxo-3,4-dihydrophthalazin-1-yl)methyl)-2-fluorobenzoyl)piperazin-1-yl)nicotinonitrile]	100 to 500			> 5000	> 5000	> 5000					
O=C(c1cc(Cc2n[nH]c(=O)c3ccc(OC4CCC4)cc23)ccc1F)N1CCN(c2cc(C(F)(F)F)ccn2)CC1 [Example 156, 6-cyclobutoxy-4-(4-fluoro-3-(4-(4-(trifluoromethyl)pyridin-2-yl)piperazine-1-carbonyl)benzyl)phthalazin-1(2H)-one]	< 50			100 to 1000	1000 to 5000	> 5000					
